The text below walks through data of ChEMBL document CHEMBL5303766, “Data for DCP probe FHT-2344” (2022).

Test [1] deals with 5-hydroxytryptamine receptor 2B (Homo sapiens, UniProt P41595). Description: GPCRScan assay: inhibition of 5-HT2B. Also on record: radioligand conc. used [nm] 1.0 – 2.0, parental cells stable HEK.
The target of test [2] is Sodium-dependent noradrenaline transporter (Homo sapiens, UniProt P23975). Description: GPCRScan assay: inhibition of NET. Also on record: radioligand conc. used [nm] 1.3 – 5.0, parental cells stable HEK.
For test [3], the target named is 5-hydroxytryptamine receptor 1E (Homo sapiens) (UniProt P28566). Particulars: Compound concentration 10.0 uM; call rule not given here.
Test [4] deals with GABA-A receptor; anion channel (Rattus norvegicus) (UniProt O09028+P15431+P18506+P18508+P19969+P20236+P23574+P23576+P28471+P28473+P30191+P62813+P63079+P63138+Q91ZM7+Q9ES14). Particulars: Compound concentration 10.0 uM.
In test [5] the target is Muscarinic acetylcholine receptor M1 (Homo sapiens) (UniProt P11229). Particulars: Compound concentration 10.0 uM.
Test [6] concerns the target Chromodomain-helicase-DNA-binding protein 4 (Homo sapiens, UniProt Q14839). Description: Measurement of the ATPase catalytic activity using the ADP-Glo detection ([…]). The format is functional.

5-hydroxytryptamine receptor 2B, sequence (P41595 whole entry): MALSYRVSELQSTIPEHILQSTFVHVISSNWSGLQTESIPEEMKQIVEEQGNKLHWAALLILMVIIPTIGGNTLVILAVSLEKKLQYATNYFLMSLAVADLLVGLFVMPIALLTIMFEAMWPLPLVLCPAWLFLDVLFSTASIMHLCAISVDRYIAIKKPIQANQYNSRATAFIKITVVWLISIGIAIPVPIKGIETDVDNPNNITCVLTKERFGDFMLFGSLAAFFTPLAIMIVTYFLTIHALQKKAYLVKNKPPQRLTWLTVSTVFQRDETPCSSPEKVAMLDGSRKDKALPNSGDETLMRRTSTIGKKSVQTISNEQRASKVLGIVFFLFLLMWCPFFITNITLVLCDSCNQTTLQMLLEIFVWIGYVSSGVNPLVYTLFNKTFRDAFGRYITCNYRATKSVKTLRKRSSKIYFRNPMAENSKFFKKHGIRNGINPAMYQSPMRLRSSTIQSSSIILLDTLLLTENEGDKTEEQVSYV
5-hydroxytryptamine receptor 1E (Homo sapiens), sequence (P28566 whole entry): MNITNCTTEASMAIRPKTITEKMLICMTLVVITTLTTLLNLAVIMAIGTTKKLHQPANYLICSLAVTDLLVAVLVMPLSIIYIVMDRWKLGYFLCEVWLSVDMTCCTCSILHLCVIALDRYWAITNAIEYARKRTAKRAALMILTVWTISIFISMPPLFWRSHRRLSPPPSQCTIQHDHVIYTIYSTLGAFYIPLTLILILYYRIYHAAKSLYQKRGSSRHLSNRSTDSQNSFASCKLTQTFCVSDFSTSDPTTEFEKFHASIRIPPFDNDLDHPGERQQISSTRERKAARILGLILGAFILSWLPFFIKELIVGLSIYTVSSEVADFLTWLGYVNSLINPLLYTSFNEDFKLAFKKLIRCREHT
Muscarinic acetylcholine receptor M1 (Homo sapiens), sequence (P11229 whole entry): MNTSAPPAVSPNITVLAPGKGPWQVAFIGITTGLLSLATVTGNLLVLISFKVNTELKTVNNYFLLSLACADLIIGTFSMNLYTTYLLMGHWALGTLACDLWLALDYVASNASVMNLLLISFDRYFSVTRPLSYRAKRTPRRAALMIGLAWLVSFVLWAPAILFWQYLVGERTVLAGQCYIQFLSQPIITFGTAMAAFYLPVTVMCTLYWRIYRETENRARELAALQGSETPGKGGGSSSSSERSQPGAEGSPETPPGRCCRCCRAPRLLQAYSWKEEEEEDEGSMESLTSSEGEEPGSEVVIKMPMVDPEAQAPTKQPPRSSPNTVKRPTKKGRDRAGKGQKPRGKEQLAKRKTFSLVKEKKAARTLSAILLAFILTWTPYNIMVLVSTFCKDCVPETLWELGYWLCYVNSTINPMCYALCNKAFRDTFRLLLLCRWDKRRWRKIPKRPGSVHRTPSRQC
Chromodomain-helicase-DNA-binding protein 4, sequence (Q14839 whole entry): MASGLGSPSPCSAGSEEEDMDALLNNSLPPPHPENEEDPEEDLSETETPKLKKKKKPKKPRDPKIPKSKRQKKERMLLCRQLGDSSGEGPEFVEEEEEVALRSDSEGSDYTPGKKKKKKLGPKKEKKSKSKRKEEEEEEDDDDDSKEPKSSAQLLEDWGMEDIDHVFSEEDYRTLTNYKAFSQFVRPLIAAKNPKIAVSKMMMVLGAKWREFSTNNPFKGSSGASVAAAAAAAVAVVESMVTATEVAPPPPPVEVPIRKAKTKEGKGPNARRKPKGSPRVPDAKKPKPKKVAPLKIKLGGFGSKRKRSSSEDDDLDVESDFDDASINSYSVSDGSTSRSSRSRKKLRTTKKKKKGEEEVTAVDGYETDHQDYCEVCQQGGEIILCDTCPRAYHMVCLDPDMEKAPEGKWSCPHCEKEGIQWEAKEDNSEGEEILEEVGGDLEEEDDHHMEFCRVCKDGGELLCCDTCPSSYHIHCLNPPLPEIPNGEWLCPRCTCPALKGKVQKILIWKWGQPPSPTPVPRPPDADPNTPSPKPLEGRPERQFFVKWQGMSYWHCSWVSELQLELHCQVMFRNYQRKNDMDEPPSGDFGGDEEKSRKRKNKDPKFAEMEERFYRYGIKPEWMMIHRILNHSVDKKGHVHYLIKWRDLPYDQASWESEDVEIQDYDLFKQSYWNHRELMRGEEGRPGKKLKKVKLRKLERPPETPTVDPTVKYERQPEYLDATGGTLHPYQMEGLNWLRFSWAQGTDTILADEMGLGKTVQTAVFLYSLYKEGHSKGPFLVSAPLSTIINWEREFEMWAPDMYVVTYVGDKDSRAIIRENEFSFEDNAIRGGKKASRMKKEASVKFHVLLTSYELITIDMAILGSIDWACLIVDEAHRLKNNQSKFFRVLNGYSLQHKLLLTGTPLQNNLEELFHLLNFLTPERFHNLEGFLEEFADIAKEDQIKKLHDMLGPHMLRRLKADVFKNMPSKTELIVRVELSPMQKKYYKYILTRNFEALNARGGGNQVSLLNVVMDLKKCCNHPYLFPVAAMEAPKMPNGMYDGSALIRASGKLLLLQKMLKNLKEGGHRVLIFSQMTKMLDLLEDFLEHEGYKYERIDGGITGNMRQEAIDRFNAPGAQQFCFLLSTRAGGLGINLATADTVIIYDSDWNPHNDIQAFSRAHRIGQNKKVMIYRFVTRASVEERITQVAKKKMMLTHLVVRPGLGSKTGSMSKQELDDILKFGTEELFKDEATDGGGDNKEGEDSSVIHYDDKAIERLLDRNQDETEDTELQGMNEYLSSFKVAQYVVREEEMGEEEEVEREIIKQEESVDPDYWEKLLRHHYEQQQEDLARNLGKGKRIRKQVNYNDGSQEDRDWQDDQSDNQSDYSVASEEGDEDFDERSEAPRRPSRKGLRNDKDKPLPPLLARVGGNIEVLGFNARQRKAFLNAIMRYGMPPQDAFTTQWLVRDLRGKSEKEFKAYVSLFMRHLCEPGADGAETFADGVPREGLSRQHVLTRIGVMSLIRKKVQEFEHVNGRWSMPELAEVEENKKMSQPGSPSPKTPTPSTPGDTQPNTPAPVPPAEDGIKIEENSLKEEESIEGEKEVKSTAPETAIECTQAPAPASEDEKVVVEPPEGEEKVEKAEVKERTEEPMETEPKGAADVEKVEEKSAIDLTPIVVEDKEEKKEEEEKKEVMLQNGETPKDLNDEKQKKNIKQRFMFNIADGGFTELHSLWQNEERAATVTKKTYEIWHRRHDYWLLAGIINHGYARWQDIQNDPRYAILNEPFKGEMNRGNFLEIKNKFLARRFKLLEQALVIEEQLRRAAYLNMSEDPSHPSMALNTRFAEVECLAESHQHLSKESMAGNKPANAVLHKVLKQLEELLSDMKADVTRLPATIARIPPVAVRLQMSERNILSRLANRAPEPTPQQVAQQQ
Sodium-dependent noradrenaline transporter, sequence (P23975 whole entry): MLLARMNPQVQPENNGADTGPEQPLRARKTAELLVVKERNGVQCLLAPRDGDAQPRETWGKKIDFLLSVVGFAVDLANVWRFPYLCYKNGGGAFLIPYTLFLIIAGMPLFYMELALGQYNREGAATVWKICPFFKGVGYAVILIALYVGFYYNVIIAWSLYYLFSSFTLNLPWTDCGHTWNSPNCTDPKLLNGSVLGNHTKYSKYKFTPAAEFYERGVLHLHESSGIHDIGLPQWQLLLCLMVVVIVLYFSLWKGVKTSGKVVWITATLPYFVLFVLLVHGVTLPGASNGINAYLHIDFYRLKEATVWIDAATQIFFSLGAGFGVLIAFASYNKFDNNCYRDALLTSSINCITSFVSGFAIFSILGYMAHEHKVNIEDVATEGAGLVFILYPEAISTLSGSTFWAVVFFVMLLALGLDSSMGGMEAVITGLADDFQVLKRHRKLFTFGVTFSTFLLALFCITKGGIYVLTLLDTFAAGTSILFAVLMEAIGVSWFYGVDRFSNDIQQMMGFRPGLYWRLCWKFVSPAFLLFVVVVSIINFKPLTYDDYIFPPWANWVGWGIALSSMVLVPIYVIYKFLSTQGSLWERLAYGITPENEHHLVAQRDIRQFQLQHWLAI

As a reminder, the inhibition is the relative decrease from the control value, in per cent. For the compound `C[C@H](NC(=O)c1cn(C2(C#N)CC2)cn1)C(=O)Nc1nc(-c2cccc(-c3ccn(C)n3)c2)cs1`, the Ki was 0.508 µM in test [1] (read-out: Ki), 0.49 µM in test [1] (read-out: pKi (converted)) and 8.27 µM in test [2]. Besides, the inhibition is -0.87% in test [3], 49.4% in test [4] and 23.2% in test [5].
The IC50 is the concentration at which inhibition is half-maximal. As for `COC[C@H](NC(=O)c1ccn(S(C)(=O)=O)c1)C(=O)Nc1nc(-c2cccc(-c3ccn(C)n3)c2)cs1`, the half-inhibitory concentration (IC50) in test [6] was > 200 µM (not active).
